pIC50: −log10 of the molar value.
biological target: Intestinal-type alkaline phosphatase (Homo sapiens, UniProt P09923); test: inhibition of human intestinal alkaline phosphatase – biochemical, dose response (AID 488876)
Sequence (P09923 whole entry): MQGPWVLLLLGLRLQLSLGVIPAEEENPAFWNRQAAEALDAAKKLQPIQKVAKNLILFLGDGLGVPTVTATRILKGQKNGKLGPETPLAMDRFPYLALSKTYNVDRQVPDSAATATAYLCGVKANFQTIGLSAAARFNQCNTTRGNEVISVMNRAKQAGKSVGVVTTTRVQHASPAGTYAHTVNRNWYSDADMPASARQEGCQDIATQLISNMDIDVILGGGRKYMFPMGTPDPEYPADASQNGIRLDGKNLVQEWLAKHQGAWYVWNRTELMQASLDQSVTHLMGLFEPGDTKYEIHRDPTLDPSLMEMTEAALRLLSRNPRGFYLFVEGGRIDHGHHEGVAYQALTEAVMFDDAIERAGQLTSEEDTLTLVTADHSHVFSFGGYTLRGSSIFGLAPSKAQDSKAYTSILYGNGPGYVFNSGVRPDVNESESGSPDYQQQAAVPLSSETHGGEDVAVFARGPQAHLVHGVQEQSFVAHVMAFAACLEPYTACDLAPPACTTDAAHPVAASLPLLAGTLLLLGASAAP

SMILES | pIC50
Cc1ccc(Cl)c2c1NC(=O)/C2=C1/NC(=S)NC1=O | < 4.00
Nc1nnc(CC(=O)N/N=C/C2C=C([N+](=O)[O-])C=C(Br)C2=O)s1 (centres undefined) [2-(5-azanyl-1,3,4-thiadiazol-2-yl)-N'-[(E)-(5-bromanyl-3-nitro-6-oxidanylidene-cyclohexa-2,4-dien-1-ylidene)methyl]ethanehydrazide] | < 4.00
NS(=O)(=O)c1cc(C(=O)NNC2=c3ccccc3=NC2=O)ccc1Cl [2-chloro-5-[[(2-oxoindol-3-yl)amino]carbamoyl]benzenesulfonamide] | < 4.00
COc1cc(C=Nn2c(O)csc2=S)ccc1O [3-[[(E)-(3-methoxy-4-oxidanylidene-cyclohexa-2,5-dien-1-ylidene)methyl]amino]-2-sulfanylidene-1,3-thiazolidin-4-one] | 4.67
Oc1ccc(C=Nn2c(O)csc2=S)c(O)c1O [3-[[(E)-[2,3-bis(oxidanyl)-4-oxidanylidene-cyclohexa-2,5-dien-1-ylidene]methyl]amino]-2-sulfanylidene-1,3-thiazolidin-4-one] | < 4.00
CC1NON=C1C(=O)NN=CC1=CC(=O)C(=O)C=C1 (centres undefined) [4-Methyl-furazan-3-carboxylic acid (3,4-dihydroxy-benzylidene)-hydrazide] | 4.85
Cc1ccc(/C=C2\SC(=S)N(/N=C/C3C=C([N+](=O)[O-])C=CC3=O)C2=O)o1 (centres undefined) [(5Z)-5-[(5-methylfuran-2-yl)methylidene]-3-[[(E)-(3-nitro-6-oxocyclohexa-2,4-dien-1-ylidene)methyl]amino]-2-sulfanylidene-1,3-thiazolidin-4-one] | 4.10
C#CCOCCOCCOCCNc1nc(N2CCN(C(=O)CCCCCCCCCCNC(=O)[C@H]([C@@H](C)CC)n3cc(CCCCN=C(N)N)nn3)CC2)nc(N2CCN(C(=O)CCCCCCCCCCNC(=O)[C@@H]([C@H](C)O)n3cc(C)nn3)CC2)n1 [GT-RI] | 4.06
C#CCOCCOCCOCCNc1nc(N2CCN(C(=O)CCCCCCCCCCNC(=O)Cn3cc(CCCCCN)nn3)CC2)nc(N2CCN(C(=O)CCCCCCCCCCNC(=O)Cn3cc(C[C@@H](C)O)nn3)CC2)n1 [KG-TG] | < 4.00
COc1cc(C=CC(=O)CC(=O)C=Cc2ccc(O)cc2)ccc1O [demethoxycurcumin] | < 4.00

Further lines, results first:

pIC50 | SMILES
< 4.00 | O=C1C=CC(C=NNC(=S)Nc2ccccc2[N+](=O)[O-])C=C1O (centres undefined) [MLS000417596]
4.84 | C#CCOCCOCCOCCNc1nc(N2CCN(C(=O)CCCCCCCCCCNC(=O)[C@@H](CCSC)n3cc(CCO)nn3)CC2)nc(N2CCN(C(=O)CCCCCCCCCCNC(=O)[C@H]([C@@H](C)CC)n3cc(CCCCCN)nn3)CC2)n1 [MLS002153719]
< 4.00 | O=C(Nn1c(O)csc1=S)C(=O)Nn1c(O)csc1=S [SMR000349781]
5.36 | O=C1C=CC(/C=C/c2nc(O)c([N+](=O)[O-])c(=O)[nH]2)C=C1O (centres undefined) [SMR000524347]

— BindingDB's records for doi:10.7270/Q2X63KDM (Burnham Center For Chemical Genomics, 2010)
